Broadly, the IC50 is the concentration needed to halve the response being measured. The AC50 is the midpoint of the concentration-response curve, whichever way the signal moves. The term EC50 denotes the midpoint of the concentration-response curve. In general, CC50 refers to the concentration giving 50% cytotoxicity.

The source made the active and inactive calls.

Data on 5 compounds can be found in ChEMBL document CHEMBL1201862, “PubChem BioAssay data set” (2004).

Assay [1] deals with Epstein-Barr nuclear antigen 1 (Epstein-Barr virus (strain B95-8) (HHV-4) (Human herpesvirus 4), UniProt P03211). Description: inhibition of EBV nuclear antigen 1 DNA binding – biochemical, fluorescence polarization, 1536-well, dose response (AID 2381).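 Also: fluorescence polarization of a Cy5 DNA probe bound by EBNA-1 protein.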 The arrangement: species or system human gammaherpesvirus 4. A general note: In fluorescence polarisation assays a small probe gives low polarisation when free and higher when bound to something large.
Chain of Epstein-Barr nuclear antigen 1 (P03211 whole entry): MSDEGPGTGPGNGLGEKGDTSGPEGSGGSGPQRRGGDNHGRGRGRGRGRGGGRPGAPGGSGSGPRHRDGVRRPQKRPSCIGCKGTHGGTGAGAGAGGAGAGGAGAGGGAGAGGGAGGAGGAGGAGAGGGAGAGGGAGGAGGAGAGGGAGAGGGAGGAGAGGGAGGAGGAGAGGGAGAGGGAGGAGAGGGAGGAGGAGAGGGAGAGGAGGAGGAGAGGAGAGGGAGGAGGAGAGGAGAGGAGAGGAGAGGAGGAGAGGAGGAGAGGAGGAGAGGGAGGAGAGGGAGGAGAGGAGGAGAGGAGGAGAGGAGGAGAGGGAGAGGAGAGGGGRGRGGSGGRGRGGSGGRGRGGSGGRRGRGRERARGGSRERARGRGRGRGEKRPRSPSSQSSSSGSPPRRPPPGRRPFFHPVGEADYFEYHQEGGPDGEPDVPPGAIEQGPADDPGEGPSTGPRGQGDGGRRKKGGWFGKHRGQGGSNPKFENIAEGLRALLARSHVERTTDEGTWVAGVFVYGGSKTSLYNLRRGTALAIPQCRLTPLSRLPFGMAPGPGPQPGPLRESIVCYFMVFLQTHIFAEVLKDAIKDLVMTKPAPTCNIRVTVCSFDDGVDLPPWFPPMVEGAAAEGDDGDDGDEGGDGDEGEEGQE

Assay [2] deals with Lytic switch protein BZLF1 (Epstein-Barr virus (strain B95-8) (HHV-4) (Human herpesvirus 4), UniProt P03206). Nature of the assay: inhibition of BZLF1 ZTA DNA binding – biochemical, fluorescence polarization, Epstein-Barr virus, 1536-well, counter-screen for EBNA-1 inhibitor project, dose response (AID 2377).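 Also: fluorescence polarization of Cy5-labelled ZRE DNA probe bound by purified Zta.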 The arrangement: species or system human gammaherpesvirus 4.
Chain of Lytic switch protein BZLF1 (P03206 whole entry): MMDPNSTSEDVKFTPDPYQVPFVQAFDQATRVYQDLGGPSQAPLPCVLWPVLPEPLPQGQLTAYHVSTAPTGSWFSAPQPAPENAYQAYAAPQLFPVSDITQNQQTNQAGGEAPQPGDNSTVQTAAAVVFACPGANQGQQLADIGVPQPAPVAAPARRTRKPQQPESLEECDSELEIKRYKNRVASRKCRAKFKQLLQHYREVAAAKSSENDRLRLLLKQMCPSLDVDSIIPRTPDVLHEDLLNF
For assay [3], the target named is T1, E3 ubiquitin-protein ligase XIAP (Homo sapiens, UniProt P98170). Nature of the assay: small molecules displacing peptide from XIAP – biochemical, IAP family, fluorescence polarization (AID 1018). In kind it is functional.
T1 sequence (P98170 whole entry): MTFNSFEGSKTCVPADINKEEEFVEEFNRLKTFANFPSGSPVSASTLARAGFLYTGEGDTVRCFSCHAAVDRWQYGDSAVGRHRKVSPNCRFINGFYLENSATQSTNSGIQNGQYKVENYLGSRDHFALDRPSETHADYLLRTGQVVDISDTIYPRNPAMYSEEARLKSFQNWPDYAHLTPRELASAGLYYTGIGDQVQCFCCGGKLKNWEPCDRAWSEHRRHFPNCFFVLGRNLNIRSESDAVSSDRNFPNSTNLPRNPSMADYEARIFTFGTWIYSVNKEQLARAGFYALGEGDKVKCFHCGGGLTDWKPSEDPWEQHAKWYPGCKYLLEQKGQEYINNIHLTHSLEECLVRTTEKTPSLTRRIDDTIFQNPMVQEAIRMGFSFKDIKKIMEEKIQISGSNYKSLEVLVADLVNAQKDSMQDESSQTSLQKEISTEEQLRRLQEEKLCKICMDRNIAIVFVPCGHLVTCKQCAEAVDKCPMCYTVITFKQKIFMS
Assay [4] concerns the target T1, E3 ubiquitin-protein ligase XIAP. Description: Counter Screen using XIAP-Bir3 for Chemical Antagonists of Bir1/2 domains of IAP-family anti-apoptotic proteins. [Related pubchem assays (depositor defined):AID1018, AID1449, AID1514, AID1638, AID1749, AID1750, AID488957, AID488963]. On the technique in general: Counterscreens check selectivity or assay interference.

Assay [5] is described as follows: loss of viability in HepG2 cells – cell-based, CellTiter-Glo, cherry-picked, cytotoxicity control for Shn3 inhibitor project, dose response (AID 624134). It is filed as functional. (ATP-based viability assays read luminescence as a measure of living cells.)
Assay [6] can be described thus: Trypanosoma cruzi growth suppression in host cells – NIH3T3 host cells, beta-gal luminescence, confirmation (AID 2044).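 Also: intracellular parasites grown in NIH/3T3 mouse fibroblasts as host cells; luminescent beta-galactosidase reporter signal from transgenic T. cruzi replicating inside host cells; inhibitors lower the luminescence signal.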 In kind it is functional, cell-based.
Assay [7] can be described thus: non-specific 3'UTR reporter inhibition in Clone20-Shn3RL – cell-based, Renilla luciferase, cherry-picked, counter-screen for Shn3 inhibitor project, dose response (AID 624133). In kind it is functional.
A short description of assay [8]: reduction of Shn3 3'UTR-driven luciferase in osteoblasts – cell-based, Clone20 osteoblasts, firefly luciferase, cherry-picked, dose response (AID 624132).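 Also: firefly luciferase luminescence from reporter carrying the Shn3 3'UTR in osteoblasts.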 In kind it is functional.
Another assay has as its system Vero. Description: cells. It is filed as functional. The settings on record: Chlorocebus sabaeus.
The target in assay [9] is Glucose-6-phosphate 1-dehydrogenase (Homo sapiens, UniProt P11413). Description: inhibition of Homo sapiens G6PD, dose series – biochemical, fluorescence, selectivity assay for P. falciparum G6PD inhibitor project, dose response (AID 504792). In kind it is functional.
Chain of Glucose-6-phosphate 1-dehydrogenase (P11413 whole entry): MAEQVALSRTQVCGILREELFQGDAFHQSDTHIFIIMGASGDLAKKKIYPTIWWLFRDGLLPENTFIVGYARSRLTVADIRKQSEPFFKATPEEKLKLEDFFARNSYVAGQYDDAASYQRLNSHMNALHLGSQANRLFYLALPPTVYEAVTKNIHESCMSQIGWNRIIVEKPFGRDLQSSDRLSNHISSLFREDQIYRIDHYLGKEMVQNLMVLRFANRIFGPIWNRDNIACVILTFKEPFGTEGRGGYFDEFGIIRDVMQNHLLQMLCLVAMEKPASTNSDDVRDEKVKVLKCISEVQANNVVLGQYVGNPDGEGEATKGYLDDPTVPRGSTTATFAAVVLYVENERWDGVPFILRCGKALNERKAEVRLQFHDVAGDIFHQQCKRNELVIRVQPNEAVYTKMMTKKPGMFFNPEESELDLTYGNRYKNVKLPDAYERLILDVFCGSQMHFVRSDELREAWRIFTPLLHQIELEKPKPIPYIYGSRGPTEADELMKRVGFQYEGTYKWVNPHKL
Assay [10] is described as follows: NIH3T3 cell viability loss – ATP luminescence, mouse fibroblasts, counter-screen, dose response (AID 2010).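 Also: cells exposed to compound for about 90 hours before reading.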 It is filed as functional, cell-based.
The nature of assay [11]: viability loss of HPDE-C7K cells – cell-based, fluorescence, HTS, primary screen (AID 431). In kind it is functional. The settings on record: Homo sapiens.
The nature of assay [12]: HPDE-C7 pancreatic duct cell viability loss – fluorescence, HTS (AID 430). In kind it is functional, cell-based. The settings on record: Homo sapiens.
The target of assay [13] is Neurotensin receptor type 1 (Homo sapiens, UniProt P30989). In kind it is functional.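 Also: Image-based confirmatory dose-response assay measuring agonist activity at NTR1; NTR1-expressing U2OS osteosarcoma cells imaged for beta-arrestin GFP spot formation; agonist potency where compounds increase beta-arrestin recruitment.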
Chain of Neurotensin receptor type 1 (P30989 whole entry): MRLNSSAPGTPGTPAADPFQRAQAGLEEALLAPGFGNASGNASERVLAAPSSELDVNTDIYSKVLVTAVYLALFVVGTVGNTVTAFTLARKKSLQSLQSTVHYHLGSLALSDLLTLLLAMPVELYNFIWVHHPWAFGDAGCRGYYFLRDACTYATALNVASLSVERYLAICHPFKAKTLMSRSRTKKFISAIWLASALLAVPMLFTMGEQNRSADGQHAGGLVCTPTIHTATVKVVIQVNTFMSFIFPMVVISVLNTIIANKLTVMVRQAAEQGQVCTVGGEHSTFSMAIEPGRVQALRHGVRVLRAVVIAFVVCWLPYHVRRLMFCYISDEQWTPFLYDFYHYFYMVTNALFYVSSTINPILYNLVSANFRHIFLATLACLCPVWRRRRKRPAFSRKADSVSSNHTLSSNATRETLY
Another assay has as its system HT-1080. Nature of the assay: HT1080 cell viability loss – fluorescence readout (AID 620). It is filed as functional, cell-based. The note with it: Homo sapiens.
Assay [14] deals with Luciferin 4-monooxygenase (Photinus pyralis, UniProt P08659). Description: Counter Screen for Luciferase-based Assay Positives. [Related pubchem assays: 620, 618, 411 ].
Chain of Luciferin 4-monooxygenase (P08659 whole entry): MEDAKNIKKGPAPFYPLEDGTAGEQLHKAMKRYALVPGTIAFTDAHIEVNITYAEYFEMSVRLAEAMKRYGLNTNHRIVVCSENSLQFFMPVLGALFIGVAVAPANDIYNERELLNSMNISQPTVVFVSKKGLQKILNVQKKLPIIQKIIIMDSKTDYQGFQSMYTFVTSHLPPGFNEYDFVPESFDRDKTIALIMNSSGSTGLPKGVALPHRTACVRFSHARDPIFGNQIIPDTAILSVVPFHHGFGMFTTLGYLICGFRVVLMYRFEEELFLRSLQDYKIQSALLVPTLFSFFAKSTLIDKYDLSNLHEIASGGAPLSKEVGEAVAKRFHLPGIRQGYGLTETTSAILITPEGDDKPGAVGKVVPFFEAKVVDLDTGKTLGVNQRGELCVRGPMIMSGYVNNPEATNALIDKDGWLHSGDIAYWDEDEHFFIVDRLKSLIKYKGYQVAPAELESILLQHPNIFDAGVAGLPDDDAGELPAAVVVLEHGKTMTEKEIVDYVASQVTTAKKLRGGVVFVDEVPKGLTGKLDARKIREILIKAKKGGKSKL
The target in the next assay is T2, Estrogen receptor (Homo sapiens, UniProt P03372).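 Also: potency for inhibiting coactivator peptide recruitment to the receptor.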
T2 sequence (P03372 whole entry): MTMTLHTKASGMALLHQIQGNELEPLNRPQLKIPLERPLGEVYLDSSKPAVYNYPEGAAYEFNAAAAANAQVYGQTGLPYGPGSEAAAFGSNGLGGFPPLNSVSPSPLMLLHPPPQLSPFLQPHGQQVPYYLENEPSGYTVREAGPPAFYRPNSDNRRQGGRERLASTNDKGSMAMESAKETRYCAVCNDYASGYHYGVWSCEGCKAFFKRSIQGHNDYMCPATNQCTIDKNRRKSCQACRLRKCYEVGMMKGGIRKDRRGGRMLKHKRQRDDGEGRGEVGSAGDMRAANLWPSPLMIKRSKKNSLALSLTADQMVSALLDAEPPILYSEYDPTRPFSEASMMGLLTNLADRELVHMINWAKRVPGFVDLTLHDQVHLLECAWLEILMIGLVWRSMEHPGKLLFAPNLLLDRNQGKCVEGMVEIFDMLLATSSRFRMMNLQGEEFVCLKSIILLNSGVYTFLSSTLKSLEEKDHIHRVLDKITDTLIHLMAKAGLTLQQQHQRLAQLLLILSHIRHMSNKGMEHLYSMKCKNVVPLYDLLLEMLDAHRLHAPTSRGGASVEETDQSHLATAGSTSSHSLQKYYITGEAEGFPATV

Consider `O=C(COC(=O)/C=C/c1ccccc1)Nc1cc(C(F)(F)F)ccc1N1CCOCC1`, for which the results for the IC50 in assay [1] and in assay [2] were 7.3 µM (active) and > 111 µM (not active), respectively.
`Cc1sc2nc(CN(C(=O)NC3CCCCC3)C3CCCCC3)nc(O)c2c1C`: the IC50 is > 100 µM (not active) in assay [3] and > 100 µM (inactive) in assay [4].
As for `O=C(Nc1ccc(N2CCN(C(=O)c3ccco3)CC2)c(Cl)c1)c1cc2ccccc2o1`, the values for the AC50 in assay [5], in assay [7] and in [8] were 7.49 µM (active), 17.6 µM (active) and 5 µM (active), respectively. Also, the EC50 in assay [6] was 2.3 µM (active); in assay [10], 8.95 µM (active); in [11], 16.2 µM (active); in assay [12], 17.5 µM (active); in assay [13], 6 µM (active). The CC50 in the assay with Vero was 11.2 µM (active). Also, the IC50 in assay [9] is > 80 µM (inactive).
For the compound `Fc1ccccc1OCCSc1nnnn1-c1ccccc1`, the concentration for a half-maximal effect (EC50) in the assay with HT-1080 is > 50 µM (not active); in assay [14] it was 3.32 µM (active).
In the case of `CCOC(=O)C1=C(Nc2ccc(C)cc2)S/C(=C\c2cn(CC(=O)NCC3CCCO3)c3ccccc23)C1=O` (configuration not stated), the IC50 on Estrogen receptor is 7.6 µM (active).
